Source: ChEMBL document CHEMBL5335870, “Discovery of Hepatitis B Virus Surface Antigen Suppressor GS-8873” (ACS Med Chem Lett, 2024)
pEC50: −log10 of the molar value.

Key:
[1] = test system: Hepatitis B virus; experiment: Antiviral activity against genotype D HBV infected in sodium taurocholate co-transporting polypeptide receptor-expressing stable HepG2 cell line assessed as suppression of HBsAg level incubated for 5 days by multiplex chemiluminescent MSD assay; format: functional, organism-based; details: HepG2, 120 h
[2] = Clearance in Sprague-Dawley rat at […], iv measured after 24 hrs by LC/MS/MS method; format: ADME, organism-based; details: in vivo
[3] = Oral bioavailability in Sprague-Dawley rat after 24 hrs by LC/MS/MS method; format: ADME, organism-based; details: in vivo
[4] = AUC (0 to infinity) Sprague-Dawley rat at 1 mg/kg, iv; format: ADME, organism-based; parameters: dose 1 mg/kg, route iv; details: in vivo
[5] = Clearance in Sprague-Dawley rat at 1 mg/kg, iv; format: ADME, organism-based; details: in vivo
[6] = Volume of distribution at steady state in Sprague-Dawley rat at 1 mg/kg, iv; format: ADME, organism-based; details: in vivo, read-out: Vdss
[7] = Half life in Sprague-Dawley rat at 1 mg/kg, iv; format: ADME, organism-based; details: in vivo
[8] = MRT in Sprague-Dawley rat at 1 mg/kg, iv; format: ADME, organism-based; details: in vivo
[9] = Oral bioavailability in Sprague-Dawley rat at 3 mg/kg; format: ADME, organism-based; details: in vivo
[10] = AUC (0 to infinity) Beagle dog at 0.5 mg/kg, iv; format: ADME, organism-based, Canis lupus familiaris; parameters: dose 0.5 mg/kg, route iv; details: in vivo
[11] = Clearance in Beagle dog at 0.5 mg/kg, iv; format: ADME, organism-based, Canis lupus familiaris; details: in vivo
[12] = Volume of distribution at steady state in Beagle dog at 0.5 mg/kg, iv; format: ADME, organism-based, Canis lupus familiaris; details: in vivo, read-out: Vdss
[13] = Half life in Beagle dog at 0.5 mg/kg, iv; format: ADME, organism-based, Canis lupus familiaris; details: in vivo
[14] = MRT in Beagle dog at 0.5 mg/kg, iv; format: ADME, organism-based, Canis lupus familiaris; details: in vivo
[15] = Oral bioavailability in Beagle dog at 0.5 mg/kg; format: ADME, organism-based, Canis lupus familiaris; details: in vivo
[16] = AUC (0 to infinity) Cynomolgus monkey at 0.4 mg/kg, iv; format: ADME, organism-based, Macaca fascicularis; parameters: dose 0.4 mg/kg, route iv; details: in vivo
[17] = Clearance in Cynomolgus monkey at 0.4 mg/kg, iv; format: ADME, organism-based, Macaca fascicularis; details: in vivo
[18] = Volume of distribution at steady state in Cynomolgus monkey at 0.4 mg/kg, iv; format: ADME, organism-based, Macaca fascicularis; details: in vivo, read-out: Vdss
[19] = Half life in Cynomolgus monkey at 0.4 mg/kg, iv; format: ADME, organism-based, Macaca fascicularis; details: in vivo
[20] = MRT in Cynomolgus monkey at 0.4 mg/kg, iv; format: ADME, organism-based, Macaca fascicularis; details: in vivo
[21] = Oral bioavailability in Cynomolgus monkey at 0.5 mg/kg; format: ADME, organism-based, Macaca fascicularis; details: in vivo
[22] = AUC (0 to infinity) Rhesus monkey at 0.5 mg/kg, iv; format: ADME, organism-based, Macaca mulatta; parameters: dose 0.5 mg/kg, route iv; details: in vivo
[23] = Clearance in Rhesus monkey at 0.5 mg/kg, iv; format: ADME, organism-based, Macaca mulatta; details: in vivo
[24] = Volume of distribution at steady state in Rhesus monkey at 0.5 mg/kg, iv; format: ADME, organism-based, Macaca mulatta; details: in vivo, read-out: Vdss
[25] = Half life in Rhesus monkey at 0.5 mg/kg, iv; format: ADME, organism-based, Macaca mulatta; details: in vivo

pEC50 [1]: 8.40 | clearance [2]: 4.5 mL/min/kg | bioavailability [3]: 91% | AUC(0-inf) [4]: 8.44 µM·h | clearance [5]: 4.5 mL/min/kg | Vd [6]: 0.69 L/kg | half-life [7]: 2.5 h | MRT [8]: 2.6 h | bioavailability [9]: 91% | AUC(0-inf) [10]: 4.91 µM·h | clearance [11]: 4 mL/min/kg | Vd [12]: 0.85 L/kg | half-life [13]: 5.1 h | MRT [14]: 3.6 h | bioavailability [15]: 94% | AUC(0-inf) [16]: 5.93 µM·h | clearance [17]: 2.5 mL/min/kg | Vd [18]: 1.23 L/kg | half-life [19]: 6.7 h | MRT [20]: 8.1 h | bioavailability [21]: 91% | AUC(0-inf) [22]: 6.41 µM·h | clearance [23]: 3 mL/min/kg | Vd [24]: 1.14 L/kg | half-life [25]: 5.5 h
SMILES: COCCCOc1cc2c(cc1COC)-c1cc(=O)c(C(=O)O)cn1N1[C@@H]2CCC1(C)C
